Experimental data: patent US8435978B2, “Substituted sulfonamide compounds” (Gruenenthal GmbH, priority 2006, dated 2013)
Counter-ions that a name gives are not always drawn.

Tests used:
human B1R receptor = molecular target: T1, human B1R receptor (Homo sapiens, UniProt P46663); test: Functional study on the bradykinin receptor 1 (B1R), FLIPR Ca2+ assay, hB1R cells; type: cell-based; settings: agonist Lys-Des-Arg9-bradykinin 0.5 nM, % inhibition compared with the maximum achievable inhibition; for inhibition at 10 µM: CHO-K1, test substance 10 μM, read-out: B1R Antagonism, human [10 μM] % Inhibition
T1 construct: host or cells: CHO K1 cells (Chinese hamster ovary), stably transfected
T1 sequence (P46663 1-353): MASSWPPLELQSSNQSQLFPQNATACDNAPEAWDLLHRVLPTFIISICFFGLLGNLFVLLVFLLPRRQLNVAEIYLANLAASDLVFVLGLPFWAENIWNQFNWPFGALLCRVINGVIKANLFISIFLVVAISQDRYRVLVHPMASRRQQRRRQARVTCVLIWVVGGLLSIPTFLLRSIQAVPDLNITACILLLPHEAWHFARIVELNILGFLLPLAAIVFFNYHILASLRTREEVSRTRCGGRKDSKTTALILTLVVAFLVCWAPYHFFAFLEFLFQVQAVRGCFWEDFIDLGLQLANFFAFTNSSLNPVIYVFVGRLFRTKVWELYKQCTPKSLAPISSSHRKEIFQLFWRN
Outline: (§1)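 FLIPR Ca2+ assay in recombinant CHO K1 cells (human or rat B1R), Fluo-4 dye; 10 μM compound, 10 min, then EC-level agonist per species (0.5 nM Lys-Des-Arg9-BK human / 100 nM Des-Arg9-BK rat). Output: % inhibition vs maximum.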

B1R receptor of the rat = molecular target: T2, B1R receptor of the rat (Rattus norvegicus, UniProt P97583); test: Functional study on the bradykinin receptor 1 (B1R), FLIPR Ca2+ assay, rB1R cells; type: cell-based; settings: agonist Des-Arg9-bradykinin 100 nM, % inhibition compared with the maximum achievable inhibition; for inhibition at 10 µM: CHO-K1, test substance 10 μM, read-out: B1R Antagonism, rat [10 μM] % Inhibition
T2 construct: host or cells: CHO K1 cells (Chinese hamster ovary), stably transfected
T2 sequence (P97583 1-337): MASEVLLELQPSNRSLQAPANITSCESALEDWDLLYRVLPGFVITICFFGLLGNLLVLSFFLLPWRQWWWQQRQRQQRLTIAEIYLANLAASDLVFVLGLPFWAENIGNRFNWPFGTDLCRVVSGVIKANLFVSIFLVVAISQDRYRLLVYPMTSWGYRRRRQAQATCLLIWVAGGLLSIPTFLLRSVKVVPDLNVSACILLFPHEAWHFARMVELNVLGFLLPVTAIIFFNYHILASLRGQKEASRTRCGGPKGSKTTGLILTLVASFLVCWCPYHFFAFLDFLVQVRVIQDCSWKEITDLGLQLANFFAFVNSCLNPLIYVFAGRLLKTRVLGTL
Outline: as §1

Structure (SMILES) | inhibition at 10 µM (human B1R receptor) [%] | inhibition at 10 µM (B1R receptor of the rat) [%] | B1R Antagonism, human [10 μM] % Inhibition (human B1R receptor; test substance 10 μM, hB1R CHO K1 cells) [%] | B1R Antagonism, rat [10 μM] % Inhibition (B1R receptor of the rat; test substance 10 μM, rB1R CHO K1 cells) [%]
COc1cc(C)c(S(=O)(=O)N2CCCCC2COCC(=O)Nc2cccc(N3CCCCC3)c2)c(C)c1 (stereo not drawn) [Example 429, 2-((1-(4-methoxy-2,6-dimethylphenylsulfonyl)piperidin-2-yl)methoxy)-N-(3-(piperidin-1-yl)phenyl)acetamide] | 14.3 | 99.5 | – | –
O=C(COCC1CCCCN1S(=O)(=O)c1cccc2ccccc12)NCc1ccc(CN2CCOCC2)cc1 (stereo not drawn) [Example 61, N-(4-morpholin-4-ylmethyl-benzyl)-2-[1-(naphthyl-1-sulfonyl)-piperidin-2-ylmethoxy]-acetamide] | – | – | 59.7 | 30.54
Cc1cccc(CC2CCCCN2C(=O)COCC2CCCCN2S(=O)(=O)c2c(Cl)cccc2Cl)n1 (stereo not drawn) [Example 284, 2-((1-(2,6-dichlorophenylsulfonyl)piperidin-2-yl)methoxy)-1-(2-((6-methylpyridin-2-yl)methyl)piperidin-1-yl)ethanone] | 103 | 93.5 | – | –
COc1cc(C)c(S(=O)(=O)N2CCCCC2CCOCC(=O)N2CCN(C3CCN(C)CC3)CC2)c(C)c1 (stereo not drawn) [Example 164, 2-(2-(1-(4-methoxy-2,6-dimethylphenylsulfonyl)piperidin-2-yl)ethoxy)-1-(4-(1-methylpiperidin-4-yl)piperazin-1-yl)ethanone] | 99.6 | 101 | – | –
CCN1CCN(c2ccc(NC(=O)COCC3CCCCN3S(=O)(=O)c3ccc(OC)cc3)cc2)CC1 (stereo not drawn) [Example 555, N-(4-(4-ethylpiperazin-1-yl)phenyl)-2-((1-(4-methoxyphenylsulfonyl)piperidin-2-yl)methoxy)acetamide] | 62.5 | 102 | – | –
COc1cc(C)c(S(=O)(=O)N2CCCCC2COCC(=O)Nc2ccc(-n3ccnc3C)cc2)c(C)c1 (stereo not drawn) [Example 427, 2-((1-(4-methoxy-2,6-dimethylphenylsulfonyl)piperidin-2-yl)methoxy)-N-(4-(2-methyl-1H-imidazol-1-yl)phenyl)acetamide] | 102 | 98.8 | – | –
O=C(COCC1CCCN1S(=O)(=O)c1c(Cl)cc(Cl)cc1Cl)NCc1ccc(N2CCCCC2)cc1 (stereo not drawn) [Example 71, N-(4-piperidin-1-yl-benzyl)-2-[1-(2,4,6-trichloro-phenylsulfonyl)-pyrrolidin-2-yl-methoxy]-acetamide] | 53.2 | 95.2 | – | –
O=C(COCC1CCCN1S(=O)(=O)c1c(Cl)cc(Cl)cc1Cl)N1CCN(CCc2ccccc2)CC1 (stereo not drawn) [Example 329, 1-(4-phenethylpiperazin-1-yl)-2-((1-(2,4,6-trichlorophenylsulfonyl)pyrrolidin-2-yl)methoxy)ethanone] | 105 | 98.2 | – | –
Cc1cccc(Cl)c1S(=O)(=O)N1CCC[C@@H]1COCC(=O)N1CCN(C2CCN(C)CC2)CC1 [Example 152, (R)-2-((1-(2-chloro-6-methylphenylsulfonyl)pyrrolidin-2-yl)methoxy)-1-(4-(1-methylpiperidin-4-yl)piperazin-1-yl)ethanone dihydrochloride] | 100 | 90.8 | – | –
COc1cc(C)c(S(=O)(=O)N2CCCCC2COCC(=O)N(C)CCN(C)C)c(C)c1 (stereo not drawn) [Example 379, N-(2-(dimethylamino)ethyl)-2-((1-(4-methoxy-2,6-dimethylphenylsulfonyl)piperidin-2-yl)methoxy)-N-methylacetamide] | 67.9 | 102 | – | –
COc1cc(C)c(S(=O)(=O)N2CCCCC2COCC(=O)NCc2cccc(N3CCOCC3)c2)c(C)c1 (stereo not drawn) [Example 437, 2-((1-(4-methoxy-2,6-dimethylphenylsulfonyl)piperidin-2-yl)methoxy)-N-(3-morpholinobenzyl)acetamide] | 36.1 | 102 | – | –
COc1cc(C)c(S(=O)(=O)N2CCCC2COCC(=O)N2CCN(c3ccccc3F)CC2)c(C)c1 (stereo not drawn) [Example 516, 1-(4-(2-fluorophenyl)piperazin-1-yl)-2-((1-(4-methoxy-2,6-dimethylphenylsulfonyl)pyrrolidin-2-yl)methoxy)ethanone] | 101 | 99.4 | – | –
COc1cc(C)c(S(=O)(=O)N2CCCCC2COCC(=O)N2CCCC2c2ccc(N(C)C)cc2)c(C)c1 (stereo not drawn) [Example 398, 1-(2-(4-(dimethylamino)phenyl)pyrrolidin-1-yl)-2-((1-(4-methoxy-2,6-dimethylphenylsulfonyl)piperidin-2-yl)methoxy)ethanone] | 59.8 | 98 | – | –
Cc1cccc(Cl)c1S(=O)(=O)N1CCC[C@H]1COCC(=O)N1CCN(CC2CCN(C)CC2)CC1 [Example 163, (S)-2-((1-(2-chloro-6-methylphenylsulfonyl)pyrrolidin-2-yl)methoxy)-1-(4-((1-methylpiperidin-4-yl)methyl)piperazin-1-yl)ethanone dihydrochloride] | 95 | 101 | – | –

More lines, now with the values ahead:

inhibition at 10 µM (human B1R receptor) [%] | inhibition at 10 µM (B1R receptor of the rat) [%] | B1R Antagonism, human [10 μM] % Inhibition (human B1R receptor; test substance 10 μM, hB1R CHO K1 cells) [%] | B1R Antagonism, rat [10 μM] % Inhibition (B1R receptor of the rat; test substance 10 μM, rB1R CHO K1 cells) [%] | Structure (SMILES)
98.6 | 103 | – | – | O=C(COCC1CCCN1S(=O)(=O)c1c(Cl)cccc1Cl)N1CCN(Cc2ccc(Cl)cc2)CC1 (stereo not drawn) [Example 359, 1-(4-(4-chlorobenzyl)piperazin-1-yl)-2-((1-(2,6-dichlorophenylsulfonyl)pyrrolidin-2-yl)methoxy)ethanone]
90.5 | -6.96 | – | – | O=C(COCC1CCCCN1S(=O)(=O)c1ccc(Cl)c(Cl)c1)Nc1cccc(CN2CCCC2)c1 (stereo not drawn) [Example 293, 2-((1-(3,4-dichlorophenylsulfonyl)piperidin-2-yl)methoxy)-N-(3-(pyrrolidin-1-ylmethyl)phenyl)acetamide]
92.6 | 21.4 | – | – | CN1CCC(N2CCN(C(=O)COCC3CCCCN3S(=O)(=O)c3cccc(C(F)(F)F)c3)CC2)CC1 (stereo not drawn) [Example 22, 1-[4-(1-methyl-piperidin-4-yl)-piperazin-1-yl]-2-[1-(3-trifluoromethyl-phenylsulfonyl)-piperidin-2-ylmethoxy]-ethanone]
103 | 102 | – | – | COc1cc(C)c(S(=O)(=O)N2CCCC2COCC(=O)N2CCC(N3CCCCC3)CC2)c(C)c1 (stereo not drawn) [Example 520, 1-(1,4′-bipiperidin-1′-yl)-2-((1-(4-methoxy-2,6-dimethylphenylsulfonyl)pyrrolidin-2-yl)methoxy)ethanone]
103 | 103 | – | – | O=C(COCC1CCCCN1S(=O)(=O)c1c(Cl)cccc1Cl)NCc1ccc(CN2CCCC2)cc1 (stereo not drawn) [Example 313, 2-((1-(2,6-dichlorophenylsulfonyl)piperidin-2-yl)methoxy)-N-(4-(pyrrolidin-1-ylmethyl)benzyl)acetamide]
104 | 104 | – | – | O=C(COCC1CCCN1S(=O)(=O)c1c(Cl)cccc1Cl)N1CCC(N2CCCCC2)CC1 (stereo not drawn) [Example 337, 1-(1,4′-bipiperidin-1′-yl)-2-((1-(2,6-dichlorophenylsulfonyl)pyrrolidin-2-yl)methoxy)ethanone]
102 | 85.3 | – | – | O=C(COCC1Cc2ccccc2CN1S(=O)(=O)c1ccc(Cl)cc1Cl)N1CCC(N2CCCCC2)CC1 (stereo not drawn) [Example 9, 1-(1,4′-bipiperidin-1′-yl)-2-((2-(2,4-dichlorophenylsulfonyl)-1,2,3,4-tetrahydro-isoquinolin-3-yl)methoxy)ethanone]
105 | 107 | – | – | COc1cc(C)c(S(=O)(=O)N2CCCC2COCC(=O)NCc2ccc(CN3CCCCC3)cc2)c(C)c1 (stereo not drawn) [Example 1, 2-[1-(4-methoxy-2,6-dimethyl-phenylsulfonyl)-pyrrolidin-2-ylmethoxy]-N-(4-piperidin-1-ylmethyl-benzyl)-acetamide]
102 | 60.6 | – | – | COc1cc(C)c(S(=O)(=O)N2CCCCC2COCC(=O)NCCCN2C(C)CCCC2C)c(C)c1 (stereo not drawn) [Example 260, N-(3-(2,6-dimethylpiperidin-1-yl)propyl)-2-((1-(4-methoxy-2,6-dimethylphenylsulfonyl)piperidin-2-yl)methoxy)acetamide]
24.7 | 95.4 | – | – | COc1ccc(S(=O)(=O)N2c3ccccc3CC2COCC(=O)N2CCN(CCn3c(C)ccc3C)CC2)cc1 (stereo not drawn) [Example 548, 1-(4-(2-(2,5-dimethyl-1H-pyrrol-1-yl)ethyl)piperazin-1-yl)-2-((1-(4-methoxyphenylsulfonyl)indolin-2-yl)methoxy)ethanone]
